Experimental data reported in patent publication US20140243418A1, “RASAGILINE FOR PARKINSON'S DISEASE MODIFICATION” (Teva Pharmaceutical Industries, Ltd., priority 2008, published 2014).

Legend:
Early Stage PD patients [1] = system: Early Stage PD patients
Excerpt: If, at any stage during the placebo-controlled phase the investigator determines that a subject needs additional anti-PD therapy, the subject will proceed to Phase II of the study. The investigator, aided by a questionnaire, will give careful consideration to the issue of a subject's need for additional anti-PD therapy. Scheduled in-clinic visits will be conducted at baseline and at weeks 4, 12, 24 and 36. Therefore, altogether there will be 5 scheduled visits during this phase. Unscheduled visits may be conducted at any time to assess a subject's need for additional anti-PD therapy, for safety reasons or for any other reason.
(§1) III. Additional Efficacy Endpoints • 1. Number (%) of subjects who need additional anti-PD therapy • 2. Time to need of additional anti-PD therapy • 3. Change from baseline to LOV in placebo-controlled phase in Part I of revised UPDRS (version 4)

Early Stage PD patients [2] = conditions: 1 mg only; end of the PC phase
Excerpt: as §1

Early Stage PD patients [3] = conditions: rasagiline 1 mg and 2 mg; end of the PC phase
Excerpt: IV. Sub-Study • 1. Change from baseline to LOV in placebo-controlled phase in Parkinson Fatigue scale • 2. Change from baseline in Subject Reported Outcomes (US only) • 3. A blood sample for pharmacogenetic analysis will be collected from all subjects at baseline. If not performed at baseline, can be performed at any other visit. Participation in this sub-study is voluntary pending IRB/EC approval and subject's authorization on a separate informed consent form.

PD patients = conditions: cited from earlier work

## C#CCN[C@@H]1CCc2ccccc21 [rasagiline]
Early Stage PD patients [1]; PC Phase, rasagiline 1 mg vs placebo, Cox Proportional Hazards Model
  Hazard Ratio, time to additional anti-PD therapy, 1 mg-Placebo Difference: 0.385
Early Stage PD patients [1]; PC Phase, rasagiline 2 mg vs placebo, Cox Proportional Hazards Model
  Hazard Ratio, time to additional anti-PD therapy, 2 mg-Placebo Difference: 0.379
Early Stage PD patients [1]; rasagiline 1 mg and 2 mg, end of the PC phase
  Need for additional anti PD Therapy: beneficial effect
Early Stage PD patients [2]
  UPDRS Version 4 Part 1: beneficial effect
Early Stage PD patients [3]
  Parkinson Fatigue Scale: beneficial effect
PD patients; 1 and 2 mg/d rasagiline for one year, TEMPO
  functional decline vs treatment delayed for 6 months: less functional decline
PD patients; first 6-month double-blind, randomized placebo-controlled stage of TEMPO
  efficacy as monotherapy in PD patients: efficacious as monotherapy
